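Interpolation was linear, between the two tested concentrations surrounding the appropriate level; five concentrations were tested over 48 hours in 96-well plates. GI50 = concentration required for 50% inhibition of growth.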 The source made the active and inactive calls. No stated cut-off is given here; in the data, active = GI50 up to about 1.1 µM and inactive = higher.
Assays:
Assay in all cases: NCI-60 cell line screen, 48 h
CCRF-CEM = system: CCRF-CEM
COLO 205 = system: COLO 205
HT-29 = system: HT-29
MOLT-4 = system: MOLT-4
SK-MEL-28 = system: SK-MEL-28
NCI-H23 = system: NCI-H23
SF-268 = system: SF-268
IGROV-1 = system: IGROV-1
SK-MEL-2 = system: SK-MEL-2
786-0 = system: 786-0
Malme-3M = system: Malme-3M
M14 = system: M14
SW-620 = system: SW-620
RXF 393 = system: RXF 393
TK-10 = system: TK-10
DMS-114 = system: DMS-114
UACC-257 = system: UACC-257
CAKI-1 = system: CAKI-1
U-251 = system: U-251
OVCAR-3 = system: OVCAR-3
HCT-116 = system: HCT-116
EKVX = system: EKVX
SF-539 = system: SF-539
HL-60 = system: HL-60
KM-20L2 = system: KM-20L2
A549 = system: A549
NCI-H460 = system: NCI-H460
LOX IMVI = system: LOX IMVI
NCI-H522 = system: NCI-H522
NCI-H226 = system: NCI-H226
SN12C = system: SN12C
HCC 2998 = system: HCC 2998
M19-MEL = system: M19-MEL
SR = system: SR
HOP-62 = system: HOP-62
UO-31 = system: UO-31
DMS-273 = system: DMS-273
K562 = system: K562
HCT-15 = system: HCT-15
RPMI-8226 = system: RPMI-8226
OVCAR-8 = system: OVCAR-8
SNB-19 = system: SNB-19
DLD-1 = system: DLD-1
SF-295 = system: SF-295
OVCAR-4 = system: OVCAR-4
OVCAR-5 = system: OVCAR-5
LXFL 529 = system: LXFL 529
KM12 = system: KM12
UACC-62 = system: UACC-62
SK-OV-3 = system: SK-OV-3
SNB-75 = system: SNB-75
ACHN = system: ACHN

Measured: GI50

CC1(C)CC2(S(=O)(=O)c3ccccc3)ON1CC2S(=O)(=O)c1ccccc1 (configuration not stated)
> 100 µM: HCT-15
inactive: CCRF-CEM 26.8 µM | COLO 205 > 100 µM | HT-29 > 100 µM | MOLT-4 30.8 µM | SK-MEL-28 86.1 µM | NCI-H23 88.5 µM | SF-268 > 100 µM | IGROV-1 > 100 µM | SK-MEL-2 > 100 µM | 786-0 > 100 µM | Malme-3M > 100 µM | M14 > 100 µM | SW-620 > 100 µM | RXF 393 48.4 µM | TK-10 > 100 µM | DMS-114 67.1 µM | UACC-257 > 100 µM | CAKI-1 77.3 µM | U-251 > 100 µM | OVCAR-3 > 100 µM | HCT-116 > 100 µM | EKVX > 100 µM | SF-539 > 100 µM | HL-60 26.4 µM | KM-20L2 > 100 µM | A549 > 100 µM | NCI-H460 > 100 µM | LOX IMVI 87.1 µM | NCI-H522 29.4 µM | NCI-H226 > 100 µM | SN12C > 100 µM | HCC 2998 > 100 µM | M19-MEL > 100 µM | SR 39.4 µM | HOP-62 > 100 µM | UO-31 94.2 µM | DMS-273 53.6 µM | K562 47.1 µM | RPMI-8226 35.7 µM | OVCAR-8 74.1 µM | SNB-19 > 100 µM | DLD-1 > 100 µM | SF-295 > 100 µM | OVCAR-4 54.6 µM | OVCAR-5 > 100 µM | LXFL 529 76.9 µM | KM12 > 100 µM | UACC-62 91.2 µM | SK-OV-3 > 100 µM | SNB-75 > 100 µM | ACHN > 100 µM

Reference: ChEMBL document CHEMBL1201862, “PubChem BioAssay data set” (2004)
